Patent publication US20090137664A1, “SAURURUS CERNUUS COMPOUNDS THAT INHIBIT CELLULAR RESPONSES TO HYPOXIA” (priority 2003, published 2009)

What was measured:
secreted VEGF protein = assay: induction of secreted VEGF protein by 1,10-phenanthroline in T47D cells (ELISA); type: cell-based, human; details: T47D, 1,10-phenanthroline 10 μM, 16 hr
Protocol: Cell plating and compound treatment is similar to those described earlier for hypoxic conditions. […] At the end of the incubation, the concentration of secreted VEGF protein in the conditioned media is determined by ELISA and the data normalized by the number of viable cells.

K-562 = assay: NCI in vitro cell line screen (SRB), Leukemia K-562; type: cell-based
Protocol: (§1) For exemplary purposes, an embodiment of the present invention was tested for activity with respect to certain cancer cell lines. The following Tables show results from in vitro 60-cell line antitumor testing from the US National Cancer Institute Developmental Therapeutics Program (NCI-DTP) on compound 2. The testing was in connection with the NCI's In Vitro Cell Line Screening Project (IVCLSP). Detailed information regarding the experiments and their interpretation is available from the NCI.

BT-549 = assay: NCI in vitro cell line screen (SRB), Breast Cancer BT-549; type: cell-based
Protocol: as §1

SK-MEL-5 = assay: NCI in vitro cell line screen (SRB), Melanoma SK-MEL-5; type: cell-based
Protocol: as §1

OVCAR-5 = assay: NCI in vitro cell line screen (SRB), Ovarian Cancer OVCAR-5; type: cell-based
Protocol: as §1

NCI-H522 = assay: NCI in vitro cell line screen (SRB), Non-Small Cell Lung Cancer NCI-H522; type: cell-based
Protocol: as §1

HCT-116 = assay: NCI in vitro cell line screen (SRB), Colon Cancer HCT-116; type: cell-based
Protocol: as §1

MCF7 = assay: NCI in vitro cell line screen (SRB), Breast Cancer MCF7; type: cell-based
Protocol: as §1

IGROV1 = assay: NCI in vitro cell line screen (SRB), Ovarian Cancer IGROV1; type: cell-based
Protocol: as §1

SF-539 = assay: NCI in vitro cell line screen (SRB), CNS Cancer SF-539; type: cell-based
Protocol: as §1

UACC-62 = assay: NCI in vitro cell line screen (SRB), Melanoma UACC-62; type: cell-based
Protocol: as §1

HS 578T = assay: NCI in vitro cell line screen (SRB), Breast Cancer HS 578T; type: cell-based
Protocol: as §1

[1] = Homo sapiens, read-out: LC50 (the source's name)

## COc1ccc([C@@H](O)[C@@H](C)Oc2ccc([C@H]3O[C@H](c4ccc(O[C@H](C)[C@H](O)c5ccc6c(c5)OCO6)c(OC)c4)[C@H](C)[C@H]3C)cc2OC)cc1OC [Compound 2, manassantin B]
Secreted VEGF protein
  effect on the induction of secreted VEGF protein by 1,10-phenanthroline: does not effect
K-562
  TGI: >1.00E−4 Molar
K-562; Homo sapiens, K562
  LC50 (concentration killing 50% of cells): > 100 µM
K-562; Log10 Concentration −4.0 Molar
  Mean Optical Densities: 0.327
  Percent Growth: 28%
K-562; Log10 Concentration −5.0 Molar
  Mean Optical Densities: 0.394
  Percent Growth: 37%
K-562; Log10 Concentration −6.0 Molar
  Mean Optical Densities: 0.561
  Percent Growth: 61%
K-562; Log10 Concentration −7.0 Molar
  Mean Optical Densities: 0.500
  Percent Growth: 53%
K-562; Log10 Concentration −8.0 Molar
  Mean Optical Densities: 0.470
  Percent Growth: 48%
BT-549
  TGI: 1.32E−5 Molar
BT-549; Homo sapiens
  GI50: 1.07 µM
BT-549; [1]
  CC50: > 100 µM
BT-549; Log10 Concentration −4.0 Molar
  Mean Optical Densities: 0.474
  Percent Growth: −22%
BT-549; Log10 Concentration −5.0 Molar
  Mean Optical Densities: 0.620
  Percent Growth: 3%
BT-549; Log10 Concentration −6.0 Molar
  Mean Optical Densities: 0.813
  Percent Growth: 51%
BT-549; Log10 Concentration −7.0 Molar
  Mean Optical Densities: 0.868
  Percent Growth: 65%
BT-549; Log10 Concentration −8.0 Molar
  Mean Optical Densities: 0.838
  Percent Growth: 58%
SK-MEL-5
  TGI: 1.85E−6 Molar
SK-MEL-5; Homo sapiens
  GI50: < 0.01 µM
SK-MEL-5; [1]
  CC50: 9.04 µM
SK-MEL-5; Log10 Concentration −4.0 Molar
  Mean Optical Densities: 0.097
  Percent Growth: −79%
SK-MEL-5; Log10 Concentration −5.0 Molar
  Mean Optical Densities: 0.222
  Percent Growth: −53%
SK-MEL-5; Log10 Concentration −6.0 Molar
  Mean Optical Densities: 0.771
  Percent Growth: 19%
SK-MEL-5; Log10 Concentration −7.0 Molar
  Mean Optical Densities: 1.053
  Percent Growth: 38%
SK-MEL-5; Log10 Concentration −8.0 Molar
  Mean Optical Densities: 0.980
  Percent Growth: 33%
OVCAR-5
  TGI: >1.00E−4 Molar
OVCAR-5; [1]
  CC50: > 100 µM
OVCAR-5; Log10 Concentration −4.0 Molar
  Mean Optical Densities: 0.713
  Percent Growth: 11%
OVCAR-5; Log10 Concentration −5.0 Molar
  Mean Optical Densities: 0.752
  Percent Growth: 26%
OVCAR-5; Log10 Concentration −6.0 Molar
  Mean Optical Densities: 0.862
  Percent Growth: 68%
OVCAR-5; Log10 Concentration −7.0 Molar
  Mean Optical Densities: 0.853
  Percent Growth: 65%
OVCAR-5; Log10 Concentration −8.0 Molar
  Mean Optical Densities: 0.696
  Percent Growth: 4%
NCI-H522
  TGI: >1.00E−4 Molar
NCI-H522; Homo sapiens
  GI50: 3.38 µM
NCI-H522; [1]
  CC50: > 100 µM
NCI-H522; Log10 Concentration −4.0 Molar
  Mean Optical Densities: 0.760
  Percent Growth: 9%
NCI-H522; Log10 Concentration −5.0 Molar
  Mean Optical Densities: 0.919
  Percent Growth: 35%
NCI-H522; Log10 Concentration −6.0 Molar
  Mean Optical Densities: 1.119
  Percent Growth: 67%
NCI-H522; Log10 Concentration −7.0 Molar
  Mean Optical Densities: 1.099
  Percent Growth: 64%
NCI-H522; Log10 Concentration −8.0 Molar
  Mean Optical Densities: 1.087
  Percent Growth: 62%
HCT-116
  TGI: >1.00E−4 Molar
HCT-116; Homo sapiens
  GI50: 2.25 µM
HCT-116; [1]
  CC50: > 100 µM
HCT-116; Log10 Concentration −4.0 Molar
  Mean Optical Densities: 0.329
  Percent Growth: 15%
HCT-116; Log10 Concentration −5.0 Molar
  Mean Optical Densities: 0.498
  Percent Growth: 32%
HCT-116; Log10 Concentration −6.0 Molar
  Mean Optical Densities: 0.770
  Percent Growth: 60%
HCT-116; Log10 Concentration −7.0 Molar
  Mean Optical Densities: 0.867
  Percent Growth: 70%
HCT-116; Log10 Concentration −8.0 Molar
  Mean Optical Densities: 0.978
  Percent Growth: 81%
MCF7
  TGI: 9.51E−6 Molar
MCF7; Homo sapiens
  GI50: 0.36 µM
MCF7; [1]
  CC50: > 100 µM
MCF7; Log10 Concentration −4.0 Molar
  Mean Optical Densities: 0.191
  Percent Growth: −40%
MCF7; Log10 Concentration −5.0 Molar
  Mean Optical Densities: 0.316
  Percent Growth: −1%
MCF7; Log10 Concentration −6.0 Molar
  Mean Optical Densities: 0.758
  Percent Growth: 42%
MCF7; Log10 Concentration −7.0 Molar
  Mean Optical Densities: 0.937
  Percent Growth: 60%
MCF7; Log10 Concentration −8.0 Molar
  Mean Optical Densities: 0.959
  Percent Growth: 62%
IGROV1
  TGI: >1.00E−4 Molar
IGROV1; Homo sapiens, IGROV-1
  GI50: 14 µM
IGROV1; Homo sapiens, IGROV-1, read-out: LC50 (the source's name)
  CC50: > 100 µM
IGROV1; Log10 Concentration −4.0 Molar
  Mean Optical Densities: 0.336
  Percent Growth: 13%
IGROV1; Log10 Concentration −5.0 Molar
  Mean Optical Densities: 0.500
  Percent Growth: 56%
IGROV1; Log10 Concentration −6.0 Molar
  Mean Optical Densities: 0.674
  Percent Growth: 102%
IGROV1; Log10 Concentration −7.0 Molar
  Mean Optical Densities: 0.674
  Percent Growth: 102%
IGROV1; Log10 Concentration −8.0 Molar
  Mean Optical Densities: 0.721
  Percent Growth: 114%
SF-539
  TGI: >1.00E−4 Molar
SF-539; Homo sapiens
  GI50: 6.28 µM
SF-539; [1]
  CC50: > 100 µM
SF-539; Log10 Concentration −4.0 Molar
  Mean Optical Densities: 0.535
  Percent Growth: 21%
SF-539; Log10 Concentration −5.0 Molar
  Mean Optical Densities: 0.629
  Percent Growth: 41%
SF-539; Log10 Concentration −6.0 Molar
  Mean Optical Densities: 0.848
  Percent Growth: 87%
SF-539; Log10 Concentration −7.0 Molar
  Mean Optical Densities: 0.914
  Percent Growth: 101%
SF-539; Log10 Concentration −8.0 Molar
  Mean Optical Densities: 0.880
  Percent Growth: 94%
UACC-62
  TGI: >1.00E−4 Molar
UACC-62; Homo sapiens
  GI50: 4.47 µM
UACC-62; [1]
  CC50: > 100 µM
UACC-62; Log10 Concentration −4.0 Molar
  Mean Optical Densities: 0.573
  Percent Growth: 16%
UACC-62; Log10 Concentration −5.0 Molar
  Mean Optical Densities: 0.697
  Percent Growth: 35%
UACC-62; Log10 Concentration −6.0 Molar
  Mean Optical Densities: 0.971
  Percent Growth: 78%
UACC-62; Log10 Concentration −7.0 Molar
  Mean Optical Densities: 1.072
  Percent Growth: 93%
UACC-62; Log10 Concentration −8.0 Molar
  Mean Optical Densities: 1.038
  Percent Growth: 88%
HS 578T
  TGI: >1.00E−4 Molar
HS 578T; Homo sapiens
  GI50: 10.4 µM
HS 578T; [1]
  CC50: > 100 µM
HS 578T; Log10 Concentration −4.0 Molar
  Mean Optical Densities: 0.834
  Percent Growth: 17%
HS 578T; Log10 Concentration −5.0 Molar
  Mean Optical Densities: 1.018
  Percent Growth: 51%
HS 578T; Log10 Concentration −6.0 Molar
  Mean Optical Densities: 1.188
  Percent Growth: 82%
HS 578T; Log10 Concentration −7.0 Molar
  Mean Optical Densities: 1.267
  Percent Growth: 96%
HS 578T; Log10 Concentration −8.0 Molar
  Mean Optical Densities: 1.222
  Percent Growth: 88%
